Results reported in patent US8623820B2, “FGF-9 and its use relating to blood vessels” (University of Western Ontario, priority 2008, dated 2014).

Tests used:
[1] = test system: CD31-positive endothelial cell-lined microvessels; experiment: Subcutaneous matrigel plug angiogenesis, CD31 immunostaining; assay type: in vivo, C57/Bl6 mice
Method: Matrigel plugs were mixed with either 500 ng/mL FGF-9, 500 ng/mL FGF-2 or 500 ng/mL FGF-2 and 200 ng/mL FGF-9 and subcutaneously injected into 3 month old C57/Bl6 mice. Mice were sacrificed and matrigel plugs were harvested 8 days after implantation and immunostained for CD31 (brown), to identify endothelial cell-lined microvessels.
CD31-positive microvessels immunostained in FIGS. 5B and 5C are quantified.

[2] = test system: SM α-actin positive cells on CD31 nascent blood vessels; experiment: Matrigel plug, SM α-actin coverage of CD31-positive vessels in 200 μm sections; assay type: in vivo, mice; conditions: 200 μm thick sections, 8 days after implantation
Text: Photomicrographs of Matrigel plugs harvested 8 days after implantation, cut into 200 μm thick-sections and immunostained for CD31 (left panel) and SM α-actin (central panel) and quantitation of SM α-actin coverage of CD31-positive vessels.

[3] = test system: microvessels in matrigel plug; experiment: Intravital vasoreactivity of matrigel plug microvessels; assay type: in vivo, mice; conditions: 14 days after matrigel injection
Method: 14 days after matrigel injection mice were anesthetized, the skin overlying a matrigel was surgically removed and a catheter to deliver drugs was sutured in the region of the plug. FITC-labeled dextran was injected via tail vein and the diameter of vessels in the matrigel plug was visualized using an inverted fluorescent microscope. Doses of vasoconstrictors indicated in FIG. 9 were applied and images of vessels were acquired over 5 minutes.
In separate experiments, doses of the vasoconstrictor PE followed by the vasodilator were applied to the blood vessels in matrigel plugs.

[4] = test system: SM α-actin expressing mural cells at nascent microvessels; experiment: Matrigel plug, CD31 / SM α-actin immunostaining of 8 μm sections; assay type: in vivo, C57/Bl6 mice; conditions: 8 days after implantation
Text: Photomicrographs of 8 μm-thick sections of Matrigel plugs harvested 8 days after implantation into C57/Bl6 mice and immunostained for CD31 (brown) and smooth muscle α-actin (red) and quantification of the percentage of microvessels supported by smooth muscle (SM) α-actin positive cells.

Sonic Hedgehog signaling = experiment: Matrigel plug with cyclopamine, CD31 / SM α-actin immunostaining; assay type: in vivo, mice; conditions: FGF-2+FGF-9 plugs with 500 nM cyclopamine
Method: FIG. 15A. RT-PCR of human aortic SMCs stimulated with increasing concentrations of recombinant FGF-9 for 24 h. 15B, RT-PCR of human aortic SMCs overexpressing cDNA encoding GFP or FGF-9. 15C, Western Blots of C57/Bl6 dermal fibroblasts pretreated with either DMSO or 500 nM cyclopamine and subsequently stimulated with vehicle or FGF-9 for 24 hr. 15D. Photomicrographs of FGF-2 and FGF-9 containing matrigel plugs with either DMSO or cyclopamine double immunolabeled for CD31 (brown) and sm α-actin (red). E Quantitation of SM α-actin coverage of CD31-positive vessels representative of 6 mice bearing FGF-2 or FGF-2+FGF-9 with either vehicle or 500 nM cyclopamine (79±4 vs 38±4.8, p<0.05).

Compound | area of CD31-positive microvessels ([1]; matrigel plugs, 8 days after implantation) | angiogenesis, CD31 immunoreactivity inside the matrigel ([1]; plugs with 500 ng/mL FGF-9, 500 ng/mL FGF-2 or 500 ng/mL FGF-2 and 200 ng/mL FGF-9, harvested 8 days after implantation) | SM α-actin positive cell coverage of CD31 nascent blood vessels [2] [%] | constriction of microvessels in response to phenylephrine (PE) and KCl [3] | percentage of microvessels supported by smooth muscle (SM) α-actin positive cells [4] [%] | SM α-actin coverage of CD31-positive vessels (Sonic Hedgehog signaling)
FGF-2: fibroblast growth factor 2, angiogenic polypeptide used as comparator and co-factor | equivalent levels of angiogenesis | induce angiogenesis | 7.2±1.8 | mild if any response | 37±5.4 | –
CC1=C2C[C@H]3[C@@H](CC=C4C[C@@H](O)CC[C@@]43C)[C@@H]2CC[C@]12O[C@@H]1C[C@H](C)CN[C@H]1[C@H]2C [cyclopamine] | – | – | – | – | – | 38±4.8
